According to PubChem BioAssay AID248 (DTP/NCI, 2004):
“And” between values parts separate entries of the source, which are not always exact repeats. Equal entries are not always repeated. Inconclusive results and toxic doses are left out. Cut-off read from the data, not from the text of the source: active = T/C of 150% or more; inactive = T/C below 125%.

Test system: L1210 leukemia ip in BDF1 mice, survival T/C
Experiment: NCI In Vivo Anticancer Drug Screen. Data for tumor model L1210 Leukemia (intraperitoneal) in B6D2F1 (BDF1) mice
Details: higher = longer survival
How it was run: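 Ratio derived from survival: compound-dosed mice over vehicle-dosed mice, all bearing a transplantable tumor.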

[1] = endpoint: mean survival time, dose: 100.0 mg/kg/injection, schedule: Q01DX009 (ip), vehicle: Klucel (hydroxypropylcellulose) (HPC)
[2] = endpoint: mean survival time, dose: 200.0 mg/kg/injection, schedule: Q01DX009 (ip), vehicle: Klucel (hydroxypropylcellulose) (HPC)
[3] = endpoint: mean survival time, dose: 400.0 mg/kg/injection, schedule: Q01DX009 (ip), vehicle: Klucel (hydroxypropylcellulose) (HPC)
[4] = endpoint: mean survival time, dose: 50.0 mg/kg/injection, schedule: Q01DX001 (ip), vehicle: saline
[5] = endpoint: mean survival time, dose: 100.0 mg/kg/injection, schedule: Q01DX001 (ip), vehicle: saline
[6] = endpoint: mean survival time, dose: 200.0 mg/kg/injection, schedule: Q01DX001 (ip), vehicle: saline
[7] = endpoint: mean survival time, dose: 400.0 mg/kg/injection, schedule: Q01DX001 (ip), vehicle: saline
[8] = endpoint: mean survival time, dose: 100.0 mg/kg/injection, schedule: Q01DX009 (ip), vehicle: saline with Tween-80
[9] = endpoint: mean survival time, dose: 200.0 mg/kg/injection, schedule: Q01DX009 (ip), vehicle: saline with Tween-80
[10] = endpoint: mean survival time, dose: 100.0 mg/kg/injection, schedule: Q04DX003 (ip), vehicle: saline with Tween-80
[11] = endpoint: mean survival time, dose: 200.0 mg/kg/injection, schedule: Q04DX003 (ip), vehicle: saline with Tween-80
[12] = endpoint: mean survival time, dose: 400.0 mg/kg/injection, schedule: Q01DX009 (ip), vehicle: saline with Tween-80
[13] = endpoint: mean survival time, dose: 400.0 mg/kg/injection, schedule: Q04DX003 (ip), vehicle: saline with Tween-80
[14] = endpoint: mean survival time, dose: 100.0 mg/kg/injection, schedule: Q01DX001 (ip), vehicle: carboxymethylcellulose (CMC)
[15] = endpoint: mean survival time, dose: 200.0 mg/kg/injection, schedule: Q01DX001 (ip), vehicle: carboxymethylcellulose (CMC)
[16] = endpoint: mean survival time, dose: 400.0 mg/kg/injection, schedule: Q01DX001 (ip), vehicle: carboxymethylcellulose (CMC)
[17] = endpoint: mean survival time, dose: 100.0 mg/kg/injection, schedule: Q04DX002 (ip), vehicle: Klucel (hydroxypropylcellulose) (HPC)
[18] = endpoint: mean survival time, dose: 200.0 mg/kg/injection, schedule: Q04DX002 (ip), vehicle: Klucel (hydroxypropylcellulose) (HPC)
[19] = endpoint: mean survival time, dose: 400.0 mg/kg/injection, schedule: Q04DX002 (ip), vehicle: Klucel (hydroxypropylcellulose) (HPC)

Measured: T/C

O=C(O)C1CCCC1C(=O)O (stereo not drawn)
inactive: endpoint: mean survival time, dose: 75.0 mg/kg/injection, schedule: Q04DX003 (ip), vehicle: saline 94 % of control | endpoint: mean survival time, dose: 150.0 mg/kg/injection, schedule: Q04DX003 (ip), vehicle: saline 102 % of control | endpoint: mean survival time, dose: 300.0 mg/kg/injection, schedule: Q04DX003 (ip), vehicle: saline 95 % of control

CC(=O)Nc1ccccc1Cl
inactive: [1] 100 % of control | [2] 105 % of control | [3] 108 % of control

Clc1cccc2ccc(-c3cc4ccccc4s3)nc12
inactive: [4] 102 % of control | [5] 101 % of control | [6] 101 % of control | [7] 106 % of control

CC(C)(C#N)NC(=O)NC(C)(C)C#N
inactive: endpoint: mean survival time, dose: 50.0 mg/kg/injection, schedule: Q01DX009 (ip), vehicle: saline with Tween-80 101 % of control | [8] 97 % of control | [9] 97 % of control

COc1cc2c3c(c1)C(O)CC[N+]3(C)CCC2 (stereo not drawn)
inactive: endpoint: mean survival time, dose: 12.5 mg/kg/injection, schedule: Q01DX009 (ip), vehicle: saline 90 % of control | endpoint: mean survival time, dose: 12.5 mg/kg/injection, schedule: Q04DX003 (ip), vehicle: saline 114 % of control | endpoint: mean survival time, dose: 25.0 mg/kg/injection, schedule: Q01DX009 (ip), vehicle: saline 95 % of control | endpoint: mean survival time, dose: 25.0 mg/kg/injection, schedule: Q04DX003 (ip), vehicle: saline 98 % of control | endpoint: mean survival time, dose: 50.0 mg/kg/injection, schedule: Q01DX009 (ip), vehicle: saline 92 % of control | endpoint: mean survival time, dose: 50.0 mg/kg/injection, schedule: Q04DX003 (ip), vehicle: saline 112 % of control

COC(=O)C(CSCSC)NC(=O)/C=C/c1cc(OC)ccc1OC (stereo not drawn)
inactive: [8] 87 % of control | [10] 94 % of control | [9] 93 % of control | [11] 88 % of control | [12] 93 % of control | [13] 94 % of control

Nc1c(Br)cc2c(c1Br)Cc1cc(Cl)ccc1-2
inactive: endpoint: mean survival time, dose: 50.0 mg/kg/injection, schedule: Q01DX001 (ip), vehicle: carboxymethylcellulose (CMC) 93 % of control | [14] 98 % of control | [15] 93 % of control | [16] 93 % of control

Cc1cc(CCl)c(Br)cc1CCl
inactive: [17] 100 % of control | [18] 100 % of control | [19] 107 % of control

CC(C)c1ccccc1OS(=O)(=O)c1ccc([N+](=O)[O-])cc1
inactive: [8] 103 % of control | endpoint: mean survival time, dose: 100.0 mg/kg/injection, schedule: Q04DX003 (ip), vehicle: Klucel (hydroxypropylcellulose) (HPC) 103 % of control | [9] 92 % of control | endpoint: mean survival time, dose: 200.0 mg/kg/injection, schedule: Q04DX003 (ip), vehicle: Klucel (hydroxypropylcellulose) (HPC) 105 % of control | [12] 90 % of control | endpoint: mean survival time, dose: 400.0 mg/kg/injection, schedule: Q04DX003 (ip), vehicle: Klucel (hydroxypropylcellulose) (HPC) 92 % of control

O=C(N/N=C\c1cc(Cl)ccc1[N+](=O)[O-])c1ccco1
inactive: endpoint: mean survival time, dose: 200.0 mg/kg/injection, schedule: Q01DX001 (ip), vehicle: other 93 % of control

O=C1C=CC(=O)N1CCCN1C(=O)C=CC1=O
inactive: endpoint: mean survival time, dose: 2.2 mg/kg/injection, schedule: Q01DX Z (ip), vehicle: methylcellulose (MC) 94 % of control | endpoint: mean survival time, dose: 3.3 mg/kg/injection, schedule: Q01DX Z (ip), vehicle: methylcellulose (MC) 88 % of control | endpoint: mean survival time, dose: 5.0 mg/kg/injection, schedule: Q01DX Z (ip), vehicle: methylcellulose (MC) 96 % of control

C=CC1=C(C)C(=O)N/C1=C\c1[nH]c(Cc2[nH]c(/C=C3/NC(=O)C(C(C)SC(C)=O)=C3C)cc2CCC(=O)O)c(CCC(=O)O)c1C (stereo not drawn)
inactive: [17] 101 % of control | [18] 108 % of control | [19] 97 % of control

O=c1oc2ccccc2c2c1C(c1ccc3c(c1)OCO3)C=C(c1ccc3c(c1)OCO3)O2 (stereo not drawn)
inactive: endpoint: mean survival time, dose: 25.0 mg/kg/injection, schedule: Q01DX009 (ip), vehicle: water 101 % of control | endpoint: mean survival time, dose: 50.0 mg/kg/injection, schedule: Q01DX009 (ip), vehicle: water 100 % of control | endpoint: mean survival time, dose: 100.0 mg/kg/injection, schedule: Q01DX009 (ip), vehicle: water 97 % of control | endpoint: mean survival time, dose: 200.0 mg/kg/injection, schedule: Q01DX009 (ip), vehicle: water 95 % of control | endpoint: mean survival time, dose: 400.0 mg/kg/injection, schedule: Q01DX009 (ip), vehicle: water 102 % of control

OCCN1CCN(CCCN2c3ccccc3Sc3cccnc32)CC1
inactive: endpoint: mean survival time, dose: 4.68 mg/kg/injection, schedule: Q01DX009 (ip), vehicle: saline 94 % of control | endpoint: mean survival time, dose: 9.37 mg/kg/injection, schedule: Q01DX009 (ip), vehicle: saline 104 % of control | endpoint: mean survival time, dose: 18.75 mg/kg/injection, schedule: Q01DX009 (ip), vehicle: saline 113 % of control | endpoint: mean survival time, dose: 20.0 mg/kg/injection, schedule: Q01DX009 (ip), vehicle: saline 111 % of control | endpoint: mean survival time, dose: 37.5 mg/kg/injection, schedule: Q01DX009 (ip), vehicle: saline 115 % of control | endpoint: mean survival time, dose: 40.0 mg/kg/injection, schedule: Q01DX009 (ip), vehicle: saline 112 % of control | endpoint: mean survival time, dose: 75.0 mg/kg/injection, schedule: Q01DX009 (ip), vehicle: saline 107 % of control | endpoint: median survival time, dose: 20.0 mg/kg/injection, schedule: Q01DX009 (ip), vehicle: saline 113 % of control | endpoint: median survival time, dose: 40.0 mg/kg/injection, schedule: Q01DX009 (ip), vehicle: saline 112 % of control

COc1ccc(/C=C2\N=C(c3ccco3)OC2=O)cc1Br
inactive: [1] 94 % of control | [2] 94 % of control | [3] 91 % of control

O=C(Cc1ccc(Cl)cc1)NC(NC(=O)Cc1ccc(Cl)cc1)C(Cl)(Cl)Cl
inactive: [1] 102 % of control | [2] 96 % of control | [3] 88 % of control

CC1(C)N=C(N)N=C(N)N1c1ccc(CCCCc2ccc(Cl)cc2Cl)cc1
inactive: endpoint: mean survival time, dose: 5.0 mg/kg/injection, schedule: Q01DX001 (ip), vehicle: saline 88 % of control | endpoint: mean survival time, dose: 10.0 mg/kg/injection, schedule: Q01DX001 (ip), vehicle: saline 92 % of control | endpoint: mean survival time, dose: 20.0 mg/kg/injection, schedule: Q01DX001 (ip), vehicle: saline 103 % of control

CCCCNC(=O)c1ncccc1C(=O)O
inactive: [14] 111 % of control | endpoint: mean survival time, dose: 100.0 mg/kg/injection, schedule: Q04DX003 (ip), vehicle: carboxymethylcellulose (CMC) 102 % of control | [15] 103 % of control | endpoint: mean survival time, dose: 200.0 mg/kg/injection, schedule: Q04DX003 (ip), vehicle: carboxymethylcellulose (CMC) 95 % of control | [16] 97 % of control

CCOc1ccc(CC(=O)Nc2cc([N+](=O)[O-])ccc2NCCN(CC)CC)cc1
inactive: endpoint: mean survival time, dose: 25.0 mg/kg/injection, schedule: Q04DX003 (ip), vehicle: other 97 % of control | endpoint: mean survival time, dose: 50.0 mg/kg/injection, schedule: Q04DX003 (ip), vehicle: other 97 % of control | endpoint: mean survival time, dose: 100.0 mg/kg/injection, schedule: Q04DX003 (ip), vehicle: other 95 % of control and 111 % of control

CCCCCCCC(=O)[O][Pb]([CH2]C)([CH2]C)[CH2]C
inactive: endpoint: mean survival time, dose: 12.5 mg/kg/injection, schedule: Q04DX002 (ip), vehicle: DMSO 114 % of control

COC1OC(O)C(NC(=O)C(F)(F)F)CC1O (stereo not drawn)
inactive: [4] 103 % of control | [5] 97 % of control | [6] 103 % of control | [7] 91 % of control

NS(=O)(=O)c1ccc(NC(=O)Nc2cccc3ccccc23)cc1
inactive: endpoint: mean survival time, dose: 100.0 mg/kg/injection, schedule: Q01DX001 (ip), vehicle: saline with Tween-80 91 % of control | [8] 101 % of control and 108 % of control | endpoint: mean survival time, dose: 100.0 mg/kg/injection, schedule: Q04DX002 (ip), vehicle: saline with Tween-80 95 % of control and 100 % of control | [10] 105 % of control | endpoint: mean survival time, dose: 200.0 mg/kg/injection, schedule: Q01DX001 (ip), vehicle: saline with Tween-80 87 % of control | [9] 93 % of control and 100 % of control | endpoint: mean survival time, dose: 200.0 mg/kg/injection, schedule: Q04DX002 (ip), vehicle: saline with Tween-80 98 % of control and 100 % of control | [11] 103 % of control | endpoint: mean survival time, dose: 400.0 mg/kg/injection, schedule: Q01DX001 (ip), vehicle: saline with Tween-80 94 % of control | [12] 96 % of control and 105 % of control | endpoint: mean survival time, dose: 400.0 mg/kg/injection, schedule: Q04DX002 (ip), vehicle: saline with Tween-80 93 % of control and 96 % of control | [13] 108 % of control
